From ChEMBL document CHEMBL1201862, “PubChem BioAssay data set” (2004)
Active and inactive are the calls of the source. Rule as the data show it, for most assays here: actives have a measured EC50 and inactives only a lower limit.

Key:
[1] = cytotoxicity in KRAS-transformed pancreatic duct cells, primary screen, cell-based, fluorescence, HTS (AID 431); type: functional; settings: Homo sapiens;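 also: cell line used: HPDE-C7K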
[2] = system: Streptococcus sp. 'group A'; assay: growth inhibition of control SK(-) GAS strain, dose response, counter-screen for streptokinase expression inhibitor project, luminescence, kanamycin, BacTiterGlo, confirmation (AID 1900); type: functional, organism-based
[3] = cytotoxicity in HPDE-C7 cells, cell-based, fluorescence, HTS (AID 430); type: functional; settings: Homo sapiens
Streptococcus = assay: Group A Streptococcus viability loss, dose response, counter-screen for streptokinase expression inhibitor project, luminescence, BacTiterGlo (AID 1915); type: functional, organism-based;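 also: potency for reduction of bacterial viability or growth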
Streptokinase A = target: T1, Streptokinase A (Streptococcus pyogenes serotype M1, UniProt P10520); assay: S. pyogenes streptokinase expression inhibitors, potency, dose response, plasminogen activation absorbance, OD405 (AID 1914); type: functional, Streptococcus pyogenes M1 GAS;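 also: secreted streptokinase activity via plasminogen activation per viability signal from cell pellet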
T1 sequence (P10520 whole entry): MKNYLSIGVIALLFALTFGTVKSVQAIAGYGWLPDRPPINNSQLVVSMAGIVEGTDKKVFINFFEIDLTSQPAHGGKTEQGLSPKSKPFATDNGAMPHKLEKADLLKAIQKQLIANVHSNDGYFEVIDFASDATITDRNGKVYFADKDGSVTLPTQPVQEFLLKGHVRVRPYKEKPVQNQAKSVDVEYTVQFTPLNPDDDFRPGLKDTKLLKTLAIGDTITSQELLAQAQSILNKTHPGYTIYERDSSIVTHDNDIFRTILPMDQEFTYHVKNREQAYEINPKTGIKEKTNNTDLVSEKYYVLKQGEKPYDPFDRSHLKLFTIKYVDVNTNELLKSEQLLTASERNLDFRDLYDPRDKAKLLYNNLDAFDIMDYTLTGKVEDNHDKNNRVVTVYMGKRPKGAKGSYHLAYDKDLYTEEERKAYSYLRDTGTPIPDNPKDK

Estrogen receptor = target: T2, Estrogen receptor (Homo sapiens, UniProt P03372); assay: potentiators of ERα–SRC-1 coactivator binding, dose response, biochemical, TR-FRET, ERα LBD (AID 737)
T2 sequence (P03372 whole entry): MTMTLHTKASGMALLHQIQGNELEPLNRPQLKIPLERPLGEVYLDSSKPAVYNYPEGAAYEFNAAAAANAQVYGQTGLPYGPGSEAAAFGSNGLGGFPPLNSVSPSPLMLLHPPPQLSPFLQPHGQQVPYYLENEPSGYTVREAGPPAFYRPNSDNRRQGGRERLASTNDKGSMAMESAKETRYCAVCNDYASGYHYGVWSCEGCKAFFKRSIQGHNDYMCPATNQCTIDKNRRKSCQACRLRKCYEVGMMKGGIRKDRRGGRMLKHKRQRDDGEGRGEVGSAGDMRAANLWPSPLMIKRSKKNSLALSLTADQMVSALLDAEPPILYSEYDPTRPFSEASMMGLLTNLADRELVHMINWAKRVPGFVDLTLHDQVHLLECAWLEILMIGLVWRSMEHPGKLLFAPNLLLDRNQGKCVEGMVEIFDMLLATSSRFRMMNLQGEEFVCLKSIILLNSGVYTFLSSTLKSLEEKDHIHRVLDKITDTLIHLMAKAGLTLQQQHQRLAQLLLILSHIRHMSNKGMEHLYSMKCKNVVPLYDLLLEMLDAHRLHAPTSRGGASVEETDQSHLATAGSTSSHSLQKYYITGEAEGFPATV

[4] = Luminescence Cell-Based Dose Response HTS to Identify Activators of Luciferase Translation or Activity in H4 […] Cells. [Related pubchem assays: 1829 (Project Summary), 1814 (Primary HTS)]; type: functional
[5] = Luminescence Cell-Based Dose Confirmation HTS to Identify Activators of 5'UTR Stem-Loop Driven Alpha-Synuclein mRNA Translation in H4 Neuroglioblastoma Cells. [Related pubchem assays: 1829 (Project Summary), 1814 (Primary HTS)]; type: functional
H4 = assay: Luminescence Cell-Based Dose Response HTS to Identify Activators of 5'UTR Stem-Loop Driven Prion Protein mRNA Translation in H4 Neuroglioblastoma Cells. [Related pubchem assays: 1829 (Project Summary), 1814 (Primary HTS)]; type: functional; settings: Homo sapiens
[6] = A High Throughput Confirmatory Assay used to Identify Novel Compounds that Inhibit Mycobacterium Tuberculosis in the absence of Glycerol.; type: functional
Ion channel NompC = Ion channel NompC (Danio rerio, UniProt Q7T1G6); assay: Fluorescence counterscreen assay for TRPML3 agonists: dose response cell-based high-throughput screening assay to identify agonists of the transient receptor potential channel N1 (TRPN1). [Related pubchem assays: 1526, 1424, 1448 ]; type: functional
Chain of Ion channel NompC (Q7T1G6 whole entry): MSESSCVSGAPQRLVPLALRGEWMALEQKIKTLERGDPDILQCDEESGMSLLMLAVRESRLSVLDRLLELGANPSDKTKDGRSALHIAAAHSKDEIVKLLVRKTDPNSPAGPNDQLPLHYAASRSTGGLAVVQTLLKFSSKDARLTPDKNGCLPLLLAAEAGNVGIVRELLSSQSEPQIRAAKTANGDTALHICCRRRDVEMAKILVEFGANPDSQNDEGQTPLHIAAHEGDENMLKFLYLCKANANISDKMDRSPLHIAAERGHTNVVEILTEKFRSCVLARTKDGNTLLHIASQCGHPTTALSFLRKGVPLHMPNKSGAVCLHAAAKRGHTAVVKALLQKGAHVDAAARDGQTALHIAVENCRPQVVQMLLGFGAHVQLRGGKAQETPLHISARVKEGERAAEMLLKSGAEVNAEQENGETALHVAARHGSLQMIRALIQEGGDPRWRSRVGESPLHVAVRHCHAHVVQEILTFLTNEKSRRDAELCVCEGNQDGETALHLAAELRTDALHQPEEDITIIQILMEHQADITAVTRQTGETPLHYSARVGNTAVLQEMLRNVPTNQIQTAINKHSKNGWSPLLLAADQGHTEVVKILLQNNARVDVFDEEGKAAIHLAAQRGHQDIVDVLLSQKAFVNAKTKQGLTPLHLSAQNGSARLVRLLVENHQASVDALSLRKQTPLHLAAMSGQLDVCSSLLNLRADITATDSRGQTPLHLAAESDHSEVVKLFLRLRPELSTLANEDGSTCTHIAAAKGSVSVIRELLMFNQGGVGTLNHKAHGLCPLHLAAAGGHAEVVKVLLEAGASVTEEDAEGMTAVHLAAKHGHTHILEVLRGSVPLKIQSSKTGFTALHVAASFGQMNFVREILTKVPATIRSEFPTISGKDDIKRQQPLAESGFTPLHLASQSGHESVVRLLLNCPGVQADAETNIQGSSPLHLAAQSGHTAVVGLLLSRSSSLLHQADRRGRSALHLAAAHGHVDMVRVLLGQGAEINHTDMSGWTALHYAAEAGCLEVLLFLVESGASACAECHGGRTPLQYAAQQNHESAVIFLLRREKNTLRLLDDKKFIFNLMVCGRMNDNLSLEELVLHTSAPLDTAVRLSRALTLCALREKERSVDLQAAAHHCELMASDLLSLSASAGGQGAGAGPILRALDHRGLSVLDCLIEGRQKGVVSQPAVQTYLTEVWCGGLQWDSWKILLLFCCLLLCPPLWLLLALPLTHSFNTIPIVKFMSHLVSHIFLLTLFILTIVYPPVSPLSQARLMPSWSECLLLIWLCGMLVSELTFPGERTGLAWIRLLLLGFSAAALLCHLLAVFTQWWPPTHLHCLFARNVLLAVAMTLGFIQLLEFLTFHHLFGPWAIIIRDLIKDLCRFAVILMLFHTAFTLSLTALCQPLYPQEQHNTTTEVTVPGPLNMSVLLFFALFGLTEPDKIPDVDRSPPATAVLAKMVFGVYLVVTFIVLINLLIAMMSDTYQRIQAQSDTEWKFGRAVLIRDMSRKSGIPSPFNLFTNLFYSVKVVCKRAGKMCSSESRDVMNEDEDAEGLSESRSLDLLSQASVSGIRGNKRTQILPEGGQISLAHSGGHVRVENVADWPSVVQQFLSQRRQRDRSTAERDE

Mucolipin-3 = Mucolipin-3 (Homo sapiens, UniProt Q8TDD5); assay: Dose response cell-based high-throughput screening assay for agonists of the transient receptor potential channel ML3 (TRPML3). [Related pubchem assays: 1526, 1424, 1448 ]; type: functional
Chain of Mucolipin-3 (Q8TDD5 whole entry): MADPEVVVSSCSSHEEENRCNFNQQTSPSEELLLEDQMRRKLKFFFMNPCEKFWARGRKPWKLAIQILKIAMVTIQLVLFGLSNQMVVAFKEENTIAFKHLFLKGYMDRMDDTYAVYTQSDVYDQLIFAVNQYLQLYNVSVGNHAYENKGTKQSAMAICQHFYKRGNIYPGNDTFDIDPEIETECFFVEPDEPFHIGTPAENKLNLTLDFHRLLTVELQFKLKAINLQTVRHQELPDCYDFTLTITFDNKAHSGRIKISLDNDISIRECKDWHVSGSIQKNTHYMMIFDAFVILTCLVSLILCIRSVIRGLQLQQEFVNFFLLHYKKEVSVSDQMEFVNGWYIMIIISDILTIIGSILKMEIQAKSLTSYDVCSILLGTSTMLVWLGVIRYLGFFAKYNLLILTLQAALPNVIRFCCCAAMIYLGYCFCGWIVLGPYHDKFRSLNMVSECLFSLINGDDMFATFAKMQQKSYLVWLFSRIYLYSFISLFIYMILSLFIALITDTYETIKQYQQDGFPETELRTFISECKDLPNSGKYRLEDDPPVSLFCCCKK

NADPH oxidase 1 = target: T3, NADPH oxidase 1 (Homo sapiens, UniProt Q9Y5S8); type: functional, cell-based;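 also: Cell-based assay with luminescence read-out, IC50 derived from inhibitor dose-response curves; intracellular ROS from endogenous NOX1 in intact HT29 colon cancer cells; potency of inhibitors that lower the ROS luminescence signal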
T3 sequence (Q9Y5S8 whole entry): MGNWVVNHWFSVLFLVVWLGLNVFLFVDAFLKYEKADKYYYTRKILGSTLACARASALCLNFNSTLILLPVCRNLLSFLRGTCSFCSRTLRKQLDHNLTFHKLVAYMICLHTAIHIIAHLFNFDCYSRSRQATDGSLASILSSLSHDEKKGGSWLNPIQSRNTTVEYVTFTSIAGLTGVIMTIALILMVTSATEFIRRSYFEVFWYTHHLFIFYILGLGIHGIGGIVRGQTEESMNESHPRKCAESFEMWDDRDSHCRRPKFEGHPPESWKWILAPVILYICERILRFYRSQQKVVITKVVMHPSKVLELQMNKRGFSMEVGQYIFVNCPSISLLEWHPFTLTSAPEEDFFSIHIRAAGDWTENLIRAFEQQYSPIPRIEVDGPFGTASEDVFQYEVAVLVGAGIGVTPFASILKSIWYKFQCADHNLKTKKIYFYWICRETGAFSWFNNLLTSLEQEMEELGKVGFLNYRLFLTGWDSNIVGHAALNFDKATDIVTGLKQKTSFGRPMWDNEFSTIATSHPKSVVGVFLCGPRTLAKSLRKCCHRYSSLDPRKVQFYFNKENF

Oc1nc2ccc(Cl)cc2c(-c2ccccc2)c1N1CCN(c2ccccn2)CC1
EC50 [1]: 8.58 µM (active)
EC50 [2]: 5.29 µM (active)
EC50 [3]: 5.29 µM (active)
EC50 (Streptococcus): 45.8 µM (active)

CC(Oc1ccc(Cl)cc1Cl)C(=O)Nc1ccc2oc(-c3ccncc3)nc2c1 (stereo not given)
EC50 (Streptokinase A): > 150 µM (not active)
EC50 [2]: 8.75 µM (active)
EC50 (Estrogen receptor): 11.4 µM (active)
EC50 (Streptococcus): 9.54 µM (active)

COc1ccc2c(c1)CC/C(=C\C=C\c1ccccc1OC)C2=O
EC50 [4]: 1.99 µM (active)
EC50 [5]: > 120 µM (not active)
EC50 (H4): 13.8 µM (active)
IC50 [6]: > 100 µM (active)

COC(=O)c1cc(-c2ccc(S(=O)(=O)N3CCCCC3)cc2)c(C(F)(F)F)s1
EC50 (Ion channel NompC): > 29.9 µM (not active)
EC50 (Mucolipin-3): > 29.9 µM (not active)

Oc1ccccc1-c1nc(-c2ccccc2)c(-c2ccccc2)[nH]1
IC50 (NADPH oxidase 1): > 17 µM (not active)
